Tests used:
Experiment in all cases: High-throughput multiplexed odorant screening (Smell-seq), barcode RNA-seq readout
Type in all cases: cell-based, mouse
MOR131-1 = settings: OR MOR131-1; pair called as hit, FDR=1%
From the text: (§1) We subsequently screened 182 odorants at three concentrations in triplicate against the OR cell library, the equivalent of ˜85,000 individual luciferase assays including controls (FIG. 10A, Table 2). Each 96-well plate in the assay contained positive control odorants and solvent DMSO wells for normalization (FIG. 16). We used the EdgeR software package to determine differentially responsive ORs based on a negative binomial model of barcode counts. We found 114 OR-odorant interactions (out of 7,200 possible), 81 of which are novel, and 24 interactions with 15 orphan receptors (FIG. 10C, FIG. 17 and Supplementary Table 4) (FDR=1%; Benjamini-Hochberg correction). Overall 28 of 39 receptors were activated by at least one odorant, and 68 of 182 odorants activated at least one OR (Table 4). We chose 37 interactions of at least 1.2 fold induction to test individually with a previously developed transient OR assay that has several important differences (FIG. 18). Of the 28 interactions called as hits at an FDR of 1%, 21 of them replicated in this orthogonal system (FIG. 17). […] Conversely, we also detect 14 interactions that this previous study tested, but called negative.

MOR139-1 = settings: OR MOR139-1; pair called as hit, FDR=1%
From the text: as §1

MOR136-1 = settings: OR MOR136-1; pair called as hit, FDR=1%
From the text: as §1

MOR120-1 = settings: OR MOR120-1; pair called as hit, FDR=1%
From the text: as §1

C=C(C)C1CC=C(C=O)CC1 (single isomer, unassigned; (-)) [(−)-Perillaaldehyde]
Minimum Activating Concentration (MOR131-1): 1000 µM

C=C(C)C1CCC(C)C(O)C1 (single isomer, unassigned; (-)) [(−)-Dihydrocarveol]
Minimum Activating Concentration (MOR139-1): 1000 µM
Minimum Activating Concentration (MOR136-1): 1000 µM

CCc1ccccc1O [2-Ethylphenol]
Minimum Activating Concentration (MOR136-1): 100 µM

C=C(C)C1CCC(C)C(O)C1 (single isomer, unassigned; (+)) [(+)-Dihydrocarveol]
Minimum Activating Concentration (MOR136-1): 1000 µM

CCC(=O)C(=O)CC [3,4-Hexanedione]
Minimum Activating Concentration (MOR131-1): 1000 µM

CC12CCC(CC1=O)C2(C)C (stereo not drawn) [(+)-Camphor]
Minimum Activating Concentration (MOR136-1): 100 µM

CCCCCCCCCS [Nonanethiol]
Minimum Activating Concentration (MOR120-1): 1000 µM

CC(C)(O)CCCC1=CCC(C=O)CC1 (stereo not drawn) [Lyral]
Minimum Activating Concentration (MOR120-1): 1000 µM

Source: US20200255844A1, “MULTIPLEXED RECEPTOR-LIGAND INTERACTION SCREENS” (THE REGENTS OF THE UNIVERSITY OF CALIFORNIA, priority 2017, published 2020)
